Tested on: HEK293-STF3A cells
Assay: STF3A assay (luciferase reporter)
Assay type: cell-based, Human
Settings: Homo sapiens, 24 h, 1 day of treatment
Excerpt: HEK293-STF cell line was modified from Human embryonic kidney cell line HEK293 transfected with the STF reporter. HEK293-STF3A cell line was further modified from HEK293-STF cell line to express Wnt3A. This cell line was used to identify compounds that regulate either early or late signaling components of the Wnt pathway. These two cell lines were obtained from David Virshup's laboratory, Duke-NUS. L-Wnt3A (ATCC, #CRL-2647) cell line was used for providing Wnt3A conditioned media. The three cell lines were grown in DMEM with 10% FBS incubated in 37° C. with 5% CO2.
2×10^4 HEK293-STF3A cells in 75 μl culture media were seeded in each well of white 96 well plates (Greiner #655098) and incubated overnight at 37° C. 25 μl serially diluted compound was added to the cells to give final concentration of 50 μM to 1.5 nM. After 1 day of treatment, 100 μl of Steady-Glo Luciferase Assay reagent (#E2520, Promega) was added to each well and incubated for 10 minutes at room temperature. Luminescence was measured using Tecan Safire2 plate reader.

SMILES | IC50 [nM]
COc1ccc(-c2ccc(NC(=O)CCC(=O)N3CCCn4nc(C)cc43)cc2)cc1 [Compound 63, N-(4′-methoxy-[1,1′-biphenyl]-4-yl)-4-(2-methyl-6,7-dihydropyrazolo[1,5-a]pyrimidin-4(5H)-yl)-4-oxobutanamide] | < 100
Cc1cc2n(n1)CCCN2C(=O)CCC(=O)Nc1ccc(-c2ccccc2F)cc1 [Compound 64, N-(2′-fluoro-[1,1′-biphenyl]-4-yl)-4-(2-methyl-6,7-dihydropyrazolo[1,5-a]pyrimidin-4(5H)-yl)-4-oxobutanamide] | < 100
Cc1cc2n(n1)CCCN2C(=O)CCC(=O)Nc1ccc(-c2cccc(F)c2)cc1 [Compound 65, N-(3′-fluoro-[1,1′-biphenyl]-4-yl)-4-(2-methyl-6,7-dihydropyrazolo[1,5-a]pyrimidin-4(5H)-yl)-4-oxobutanamide] | < 100
Cc1cc2n(n1)CCCN2C(=O)CCC(=O)Nc1ccc(-c2ccc(F)cc2)cc1 [Compound 66, N-(4′-fluorobiphenyl-4-yl)-4-(2-methyl-6,7-dihydropyrazolo[1,5-a]pyrimidin-4(5H)-yl)-4-oxobutanamide] | < 1000
Cc1cc2n(n1)CCCN2C(=O)CCC(=O)Nc1ccc(-c2cccc(C(=O)O)c2)cc1 [Compound 67, 4′-(4-(2-methyl-6,7-dihydropyrazolo[1,5-a]pyrimidin-4(5H)-yl)-4-oxobutanamido)-[1,1′-biphenyl]-3-carboxylic acid] | > 10000
Cc1cc2n(n1)CCCN2C(=O)CCC(=O)Nc1ccc(-c2cccc(C(=O)N(C)C)c2)cc1 [Compound 68, N,N-dimethyl-4′-(4-(2-methyl-6,7-dihydropyrazolo[1,5-a]pyrimidin-4(5H)-yl)-4-oxobutanamido)-[1,1′-biphenyl]-3-carboxamide] | > 10000
Cc1cc2n(n1)CCCN2C(=O)CCC(=O)Nc1ccc(-c2ccccc2N)cc1 [Compound 69, N-(2′-amino-[1,1′-biphenyl]-4-yl)-4-(2-methyl-6,7-dihydropyrazolo[1,5-a]pyrimidin-4(5H)-yl)-4-oxobutanamide] | < 1000
Cc1cc2n(n1)CCCN2C(=O)CCC(=O)Nc1ccc(-c2cccc(N)c2)cc1 [Compound 70, N-(3′-amino-[1,1′-biphenyl]-4-yl)-4-(2-methyl-6,7-dihydropyrazolo[1,5-a]pyrimidin-4(5H)-yl)-4-oxobutanamide] | < 100
Cc1cc2n(n1)CCCN2C(=O)CCC(=O)Nc1ccc(-c2ccc(N)cc2)cc1 [Compound 71, N-(4′-amino-[1,1′-biphenyl]-4-yl)-4-(2-methyl-6,7-dihydropyrazolo[1,5-a]pyrimidin-4(5H)-yl)-4-oxobutanamide] | < 100
Cc1cc2n(n1)CCCN2C(=O)CCC(=O)Nc1ccc(-c2cccc(N(C)C)c2)cc1 [Compound 72, N-(3′-(dimethylamino)-[1,1′-biphenyl]-4-yl)-4-(2-methyl-6,7-dihydropyrazolo[1,5-a]pyrimidin-4(5H)-yl)-4-oxobutanamide] | > 10000
Cc1cc2n(n1)CCCN2C(=O)CCC(=O)Nc1ccc(-c2cccc(N3CCOCC3)c2)cc1 [Compound 73, 4-(2-methyl-6,7-dihydropyrazolo[1,5-a]pyrimidin-4(5H)-yl)-N-(3′-morpholinobiphenyl-4-yl)-4-oxobutanamide] | < 5000
CC(=O)Nc1cccc(-c2ccc(NC(=O)CCC(=O)N3CCCn4nc(C)cc43)cc2)c1 [Compound 74, N-(3′-acetamido-[1,1′-biphenyl]-4-yl)-4-(2-methyl-6,7-dihydropyrazolo[1,5-a]pyrimidin-4(5H)-yl)-4-oxobutanamide] | < 5000
Cc1cc2n(n1)CCCN2C(=O)CCC(=O)Nc1ccc(C2CCCCC2)cc1 [Compound 75, N-(4-cyclohexylphenyl)-4-(2-methyl-6,7-dihydropyrazolo[1,5-a]pyrimidin-4(5H)-yl)-4-oxobutanamide] | > 10000
Cc1cc2n(n1)CCCN2C(=O)CCC(=O)Nc1ccc(N2CCN(C(=O)OC(C)(C)C)CC2)cc1 [Compound 76, tert-butyl 4-(4-(4-(2-methyl-6,7-dihydropyrazolo[1,5-a]pyrimidin-4(5H)-yl)-4-oxobutanamido)phenyl)piperazine-1-carboxylate] | < 100
Cc1cc2n(n1)CCCN2C(=O)CCC(=O)Nc1ccc(N2CCNCC2)cc1 [Compound 77, 4-(2-methyl-6,7-dihydropyrazolo[1,5-a]pyrimidin-4(5H)-yl)-4-oxo-N-(4-(piperazin-1-yl)phenyl)butanamide] | > 10000
CC(=O)N1CCN(c2ccc(NC(=O)CCC(=O)N3CCCn4nc(C)cc43)cc2)CC1 [Compound 78, N-(4-(4-acetylpiperazin-1-yl)phenyl)-4-(2-methyl-6,7-dihydropyrazolo[1,5-a]pyrimidin-4(5H)-yl)-4-oxobutanamide] | > 10000
CCNC(=O)N1CCN(c2ccc(NC(=O)CCC(=O)N3CCCn4nc(C)cc43)nc2)CC1 [Compound 79, N-ethyl-4-(6-(4-(2-methyl-6,7-dihydropyrazolo[1,5-a]pyrimidin-4(5H)-yl)-4-oxobutanamido)pyridin-3-yl)piperazine-1-carboxamide] | < 5000
Cc1cc2n(n1)CCCN2C(=O)CCC(=O)NC1CCC(c2ccccc2)CC1 (centres unmarked) [Compound 80, 4-(2-methyl-6,7-dihydropyrazolo[1,5-a]pyrimidin-4(5H)-yl)-4-oxo-N-(4-phenylcyclohexyl)butanamide] | > 10000
Cc1cc2n(n1)CCCN2C(=O)CCC(=O)NC1CCN(c2ccccc2)CC1 [Compound 81, 4-(2-methyl-6,7-dihydropyrazolo[1,5-a]pyrimidin-4(5H)-yl)-4-oxo-N-(1-phenylpiperidin-4-yl)butanamide] | > 10000
Cc1cc2n(n1)CCCN2C(=O)CCC(=O)Nc1ccc(C2CCN(C)CC2)cc1 [Compound 82, 4-(2-methyl-6,7-dihydropyrazolo[1,5-a]pyrimidin-4(5H)-yl)-N-(4-(1-methylpiperidin-4-yl)phenyl)-4-oxobutanamide] | > 10000
Cc1cc2n(n1)CCCN2C(=O)CCC(=O)Nc1ccc(-c2cccc(Cl)c2)nc1 [Compound 83, N-(6-(3-chlorophenyl)pyridin-3-yl)-4-(2-methyl-6,7-dihydropyrazolo[1,5-a]pyrimidin-4(5H)-yl)-4-oxobutanamide] | < 100
Cc1cc2n(n1)CCCN2C(=O)CCC(=O)Nc1ccc(-c2cccc(F)c2)nc1 [Compound 84, N-(6-(3-fluorophenyl)pyridin-3-yl)-4-(2-methyl-6,7-dihydropyrazolo[1,5-a]pyrimidin-4(5H)-yl)-4-oxobutanamide] | < 100
Cc1cccc(-c2ccc(NC(=O)CCC(=O)N3CCCn4nc(C)cc43)cn2)c1 [Compound 85, 4-(2-methyl-6,7-dihydropyrazolo[1,5-a]pyrimidin-4(5H)-yl)-4-oxo-N-(6-(m-tolyl)pyridin-3-yl)butanamide] | < 100
Cc1cc2n(n1)CCCN2C(=O)CCC(=O)Nc1cnc(-c2ccccc2)c(C)c1 [Compound 86, 4-(2-methyl-6,7-dihydropyrazolo[1,5-a]pyrimidin-4(5H)-yl)-N-(5-methyl-6-phenylpyridin-3-yl)-4-oxobutanamide] | < 5000
Cc1cc2n(n1)CCCN2C(=O)CCC(=O)Nc1ccc(-c2ccc(F)cc2)nc1 [Compound 87, N-(6-(4-fluorophenyl)pyridin-3-yl)-4-(2-methyl-6,7-dihydropyrazolo[1,5-a]pyrimidin-4(5H)-yl)-4-oxobutanamide] | < 1000
Cc1cc2n(n1)CCCN2C(=O)CCC(=O)Nc1ccc(-c2cccc(Cl)c2)cn1 [Compound 88] | < 100
